Our source for the melting point values is patent US20100298384A1, “NOVEL OXAZOLIDINONE COMPOUNDS AS ANTIINFECTIVE AGENTS” (priority 2006, published 2010).

As for `COC(=O)NC[C@H]1CN(c2ccc(-c3nc(Cn4cncn4)cs3)c(F)c2)C(=O)O1` [Example 35, Methyl {3-[3-fluoro-4-(4-[1,2,4]triazol-1-ylmethyl-thiazol-2-yl)-phenyl]-2-oxo-oxazolidin-5(S)-ylmethyl}-carbamate], the melting point lay within 199 to 201 °C. For `COC(=O)NC[C@H]1CN(c2ccc(-c3nc(Cn4cccn4)co3)c(F)c2)C(=O)O1` [Example 34, Methyl {3-[3-fluoro-4-(4-pyrazol-1-ylmethyl-oxazol-2-yl)-phenyl]-2-oxo-oxazolidin-5(S)-ylmethyl}-carbamate], the melting point fell in the range of 170 to 172 °C. Turning to `COC(=S)NC[C@H]1CN(c2ccc(-c3nc(Cn4cncn4)cs3)c(F)c2)C(=O)O1` [Example 52, O-methyl {3-[3-fluoro-4-(4-[1,2,4]triazol-1-ylmethyl-thiazol-2-yl)-phenyl]-2-oxo-oxazolidin-5(S)-ylmethyl}-thiocarbamate], the melting point is 189 to 191 °C.

`CC(=O)NC[C@H]1CN(c2ccc(-n3cc(Cn4cncn4)cn3)c(F)c2)C(=O)O1` [Example 22, N-{3-[3-fluoro-4-(4-[1,2,4]triazol-1-ylmethyl-pyrazol-1-yl)-phenyl]-2-oxo-oxazolidin-5(S)-ylmethyl}-acetamide] had a melting point of 126 to 127 °C. `CC(=S)NC[C@H]1CN(c2ccc(-n3cnc(Cn4ccnc4)c3)c(F)c2)C(=O)O1` (stereo in doubt) [Example 65, N-{3-[3-fluoro-4-(4-imidazol-1-ylmethyl-imidazol-1-yl)-phenyl]-2-oxo-oxazolidin-5-ylmethyl}-thioacetamide] showed a melting point of 160 to 162 °C. The compound `COC(=S)NC[C@H]1CN(c2ccc(-n3cc(Cn4ccc(C(F)(F)F)n4)nn3)c(F)c2)C(=O)O1` [Example 59] had a melting point of 179 to 180 °C. The compound `CC(=S)NC[C@H]1CN(c2ccc(-c3nc(Cn4cncn4)cs3)c(F)c2)C(=O)O1` [Example 61, N-{3-[3-fluoro-4-(4-[1,2,4]triazol-1-ylmethyl-thiazol-2-yl)-phenyl]-2-oxo-oxazolidin-5(S)-ylmethyl}-thioacetamide] came in with a melting point of 180 to 182 °C. On to `CC(=O)NC[C@H]1CN(c2ccc(-c3nc(Cn4cncn4)cs3)c(F)c2)C(=O)O1` [Example 11, N-{3-[3-fluoro-4-(4-[1,2,4]triazol-1-ylmethyl-thiazol-2-yl)-phenyl]-2-oxo-oxazolidin-5(S)-ylmethyl}-acetamide], for which the melting point lay in the range of 196 to 198 °C. In turn, `COC(=O)NC[C@H]1CN(c2ccc(-n3cnc(Cn4cncn4)c3)c(F)c2)C(=O)O1` [Example 45, Methyl {3-[3-fluoro-4-(4-[1,2,4]-triazol-1-ylmethyl-imidazol-1-yl)-phenyl]-2-oxo-oxazolidin-5-ylmethyl}-carbamate] came in with a melting point of 184 to 186 °C. The compound `CC(=O)NC[C@H]1CN(c2ccc(-n3cc(Cn4cccn4)cn3)c(F)c2)C(=O)O1` [Example 20, N-{3-[3-fluoro-4-(4-pyrazol-1-ylmethyl-pyrazol-1-yl)-phenyl]-2-oxo-oxazolidin-5-(S)-ylmethyl}-acetamide] displayed a melting point of 186 to 187 °C. For the compound `CC(=S)NC[C@H]1CN(c2ccc(-c3nc(Cn4cccn4)cs3)c(F)c2)C(=O)O1` [Example 62, N-{3-[3-fluoro-4-(4-pyrazole-1-ylmethyl-thiazol-2-yl)-phenyl]-2-oxo-oxazolidin-5(S)-ylmethyl}-thioacetamide], the melting point lay within 166 to 168 °C. With `COC(=O)NC[C@H]1CN(c2ccc(-n3cc(Cn4ccc(C(F)(F)F)n4)nn3)c(F)c2)C(=O)O1` [Example 49] the figure was 129 to 130 °C.

On to `COC(=S)NC[C@H]1CN(c2ccc(-c3nc(Cn4cccn4)cs3)c(F)c2)C(=O)O1` [Example 53, O-methyl {3-[3-fluoro-4-(4-pyrazol-1-ylmethyl-thiazol-2-yl)-phenyl]-2-oxo-oxazolidin-5(S)-ylmethyl}-thiocarbamate], for which the melting point is 157 to 158 °C.

For `CC(=O)NC[C@H]1CN(c2ccc(-n3cnc(Cn4cccn4)c3)c(F)c2)C(=O)O1` (stereo in doubt) [Example 26, N-{3-[3-fluoro-4-(4-pyrazol-1-ylmethyl-imidazol-1-yl)-phenyl]-2-oxo-oxazolidin-5-ylmethyl}-acetamide], the melting point was in the range of 158 to 160 °C.

As for `CC(=O)NC[C@H]1CN(c2ccc(-n3cnc(Cn4cncn4)c3)c(F)c2)C(=O)O1` (stereo in doubt) [Example 26, N-{3-[3-fluoro-4-(4-[1,2,4]triazol-1-ylmethyl-imidazol-1-yl)-phenyl]-2-oxo-oxazolidin-5-ylmethyl}-acetamide], the melting point fell in the range of 171 to 173 °C. Compound `CC(=O)NC[C@H]1CN(c2ccc(-c3nc(Cn4ccnc4)co3)c(F)c2)C(=O)O1` [Example 6, N-{3-[3-fluoro-4-(4-imidazol-1-ylmethyl-oxazol-2-yl)-phenyl]-2-oxo-oxazolidin-5(S)-ylmethyl}-acetamide] came in with a melting point of 198 to 200 °C. Consider `CC(=O)NC[C@H]1CN(c2ccc(-c3csc(Cn4ccnc4)n3)c(F)c2)C(=O)O1` (stereo in doubt) [Example 16, N-{3-[3-Fluoro-4-(2-imidazol-1-ylmethyl-thiazol-4-yl)-phenyl]-2-oxo-oxazolidin-5-ylmethyl}-acetamide], for which the melting point is 154 to 156 °C.

In turn, `CC(=O)NC[C@H]1CN(c2ccc(-n3cc(Cn4ccc(C(F)(F)F)n4)nn3)c(F)c2)C(=O)O1` [Example 32] yielded a melting point of 130 to 140 °C. On to `COC(=O)NC[C@H]1CN(c2ccc(-n3cc(Cn4cncn4)nn3)c(F)c2)C(=O)O1` [Example 48], for which the melting point was 170 °C. Consider `CC(=S)NC[C@H]1CN(c2ccc(-n3cnc(Cn4cccn4)c3)c(F)c2)C(=O)O1` (stereo in doubt) [Example 66, N-{3-[3-fluoro-4-(4-pyrazol-1-ylmethyl-imidazol-1-yl)-phenyl]-2-oxo-oxazolidin-5-ylmethyl}-thioacetamide], for which the melting point lay within 137 to 139 °C. For `CC(=O)NC[C@H]1CN(c2ccc(-c3csc(Cn4cncn4)n3)c(F)c2)C(=O)O1` (stereo in doubt) [Example 14, N-{3-[3-fluoro-4-(2[1,2,4]triazol-1-ylmethyl-thiazol-4-yl)-phenyl]-2-oxo-oxazolidin-5-ylmethyl}-acetamide], the melting point fell in the range of 154 to 156 °C. In turn, `CC(=O)NC[C@H]1CN(c2ccc(-n3cc(Cn4ccnc4)cn3)c(F)c2)C(=O)O1` [Example 18, N-{3-[3-fluoro-4-(4-imidazol-1-ylmethyl-pyrazol-1-yl)phenyl]-2-oxo-oxazolidin-5-(8)-ylmethyl}-acetamide] registered a melting point of 171 to 172 °C. For `CC(=S)NC[C@H]1CN(c2ccc(-n3cnc(Cn4cncn4)c3)c(F)c2)C(=O)O1` [Example 67, N-{3-[3-fluoro-4-(4-[1,2,4]triazol-1-ylmethyl-imidazol-1-yl)-phenyl]-2-oxo-oxazolidin-5-ylmethyl}-thioacetamide], the melting point is 171 to 173 °C. The result for `CCOC(=O)c1cn(Cc2cn(-c3ccc(N4C[C@H](CNC(=O)OC)OC4=O)cc3F)nn2)nc1N` (stereo in doubt) [Example 47, Ethyl 3-amino-1-(1-{2-fluoro-4-[5-(methoxycarbonylamino-methyl)-2-oxo-oxazolidin-3-yl]-phenyl}-1H-[1,2,3]triazol-4-ylmethyl)-1H-pyrazole-4-carboxylate] reads 98 to 100 °C; that for `COC(=O)NC[C@H]1CN(c2ccc(-c3nc(Cn4cccn4)cs3)c(F)c2)C(=O)O1` [Example 36, Methyl {3-[3-fluoro-4-(4-pyrazol-1-ylmethyl-thiazol-2-yl)-phenyl]-2-oxo-oxazolidin-5(S)-ylmethyl}-carbamate], 142 to 144 °C; that for `COC(=S)NC[C@H]1CN(c2ccc(-c3nc(Cn4ccnc4)cs3)c(F)c2)C(=O)O1` [Example 51, O-methyl {3-[3-fluoro-4-(4-imidazol-1-ylmethyl-thiazol-2-yl)-phenyl]-2-oxo-oxazolidin-5(S)-ylmethyl}-thiocarbamate], 169 to 171 °C. With `CC(=O)NC[C@H]1CN(c2ccc(-n3cnc(Cn4ccnc4)c3)c(F)c2)C(=O)O1` (stereo in doubt) [Example 24, N-{3-[3-fluoro-4-(4-imidazol-1-ylmethyl-imidazol-1-yl)-phenyl]-2-oxo-oxazolidin-5-ylmethyl}-acetamide] the figure was 180 to 182 °C; with `CC(=O)NC[C@H]1CN(c2ccc(-c3nc(Cn4cccn4)cs3)c(F)c2)C(=O)O1` [Example 12, N-{3-[3-fluoro-4-(4-pyrazol-1-ylmethyl-thiazol-2-yl)-phenyl]-2-oxo-oxazolidin-5(S)-ylmethyl}-acetamide], 178 to 180 °C; with `COC(=S)NC[C@H]1CN(c2ccc(-c3nc(Cn4cccn4)co3)c(F)c2)C(=O)O1` [Example 50, O-methyl {3-[3-fluoro-4-(4-pyrazol-1-ylmethyl-oxazol-2-yl)-phenyl]-2-oxo-oxazolidin-5(S)-ylmethyl}-thiocarbamate], 145 to 147 °C. As to `COC(=O)NC[C@H]1CN(c2ccc(-c3nc(Cn4ccnc4)cs3)c(F)c2)C(=O)O1` [Example 33], the melting point was 165 to 167 °C. Consider `COC(=O)NC[C@H]1CN(c2ccc(-n3cnc(Cn4ccnc4)c3)c(F)c2)C(=O)O1` (stereo in doubt) [Example 43, Methyl {3-[3-fluoro-4-(4-imidazol-1-ylmethyl-imidazol-1-yl)-phenyl]-2-oxo-oxazolidin-5-ylmethyl}-carbamate], for which the melting point was 78 to 80 °C. On to `CC(=S)NC[C@H]1CN(c2ccc(-c3csc(Cn4cncn4)n3)c(F)c2)C(=O)O1` [Example 63, N-{3-[3-Fluoro-4-(2[1,2,4]-triazol-1-ylmethyl-thiazol-4-yl)-phenyl]-2-oxo-oxazolidin-5-ylmethyl}-thioacetamide], for which the melting point is 82 to 84 °C.

`CC(=S)NC[C@H]1CN(c2ccc(-c3nc(Cn4ccnc4)cs3)c(F)c2)C(=O)O1` [Example 60, N-{3-[3-fluoro-4-(4-imidazol-1-ylmethyl-thiazol-2-yl)-phenyl]-2-oxo-oxazolidin-5(S)-ylmethyl}-thioacetamide]: the melting point was 169 to 171 °C.
